Measured values: patent US11535643B2, “Macrolides with modified desosamine sugars and uses thereof” (President and Fellows of Harvard College, priority 2015, dated 2022)
Where two headings read alike, the source gives them in different places.

Key:
Assay type in all cases: cell-based
[1] = tested on: S. aureus; assay: Broth dilution MIC determination (CLSI) against S. aureus strains; conditions: for MIC: Staphylococcus aureus
Outline: (§1)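 Following CLSI procedures, broth dilution is used to find the MIC for each strain. Controls: azithromycin and solithromycin.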

[2] = tested on: S. pneumoniae; assay: Broth dilution MIC determination (CLSI) against S. pneumoniae strains; conditions: for MIC: Streptococcus pneumoniae
Outline: as §1

[3] = tested on: S. pyogenes; assay: Broth dilution MIC determination (CLSI) against S. pyogenes strains; conditions: for MIC: Streptococcus pyogenes
Outline: as §1

[4] = tested on: E. faecalis; assay: Broth dilution MIC determination (CLSI) against E. faecalis strains; conditions: for MIC: Enterococcus faecalis
Outline: as §1

[5] = tested on: E. coli; assay: Broth dilution MIC determination (CLSI) against E. coli strains; conditions: for MIC: Escherichia coli
Outline: as §1

[6] = tested on: A. baumannii; assay: Broth dilution MIC determination (CLSI) against A. baumannii strains; conditions: for MIC: Acinetobacter baumannii
Outline: as §1

[7] = tested on: K. pneumoniae; assay: Broth dilution MIC determination (CLSI) against K. pneumoniae strains; conditions: for MIC: Klebsiella pneumoniae
Outline: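 CLSI broth-dilution MICs across a panel including multidrug- and macrolide-resistant strains, with azithromycin and solithromycin as control compounds.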

[8] = tested on: P. aeruginosa; assay: Broth dilution MIC determination (CLSI) against P. aeruginosa strains; conditions: for MIC: Pseudomonas aeruginosa, read-out: MIC P. aeruginosa ATCC27853; for MIC P. aeruginosa ATCC27853 / MIC: ATCC27853
Outline: as §1

[9] = tested on: H. influenzae; assay: Broth dilution MIC determination (CLSI) against H. influenzae strains; conditions: for MIC: Haemophilus influenzae
Source text: Minimum inhibitory concentrations (MICs) for macrolides described herein have been determined for unique strains of S. aureus, S. pneumoniae, S. pyogenes, E. faecalis, E. coli, A. baumannii, K. pneumoniae, P. aeruginosa, and H. influenzae, including several multidrug-resistant strains, with a special focus on macrolide resistant mechanisms. Azithromycin and solithromycin were included as control compounds. CLSI standard procedures for broth dilution MIC determination were used. Data for exemplary compounds described herein is shown in Tables M1-M7 and in Tables N1-N4.

[10] = ATCC29213, ATCC29213, read-out: MIC S. aureus ATCC29213
[11] = MRSA / USA100, MRSA: USA100, read-out: MIC S. aureus MRSA: USA100
[12] = MRSA / USA300, MRSA: USA300, read-out: MIC S. aureus MRSA: USA300
[13] = USA600, USA600, GISA, read-out: MIC S. aureus USA600, GISA
[14] = read-out: MIC S. aureus erm A genotype
[15] = ATCC49619, ATCC49619, read-out: MIC S. pneumoniae ATCC49619
[16] = erm B + mef A genotype, read-out: MIC S. pneumoniae erm B + mef A genotype
[17] = erm B + tet(M, O) genotype, read-out: MIC S. pneumoniae erm B + tet(M, O) genotype
[18] = read-out: MIC S. pneumoniae mef A genotype, mef A genotype
[19] = read-out: MIC S. pneumoniae mef A genotype, mef A genotype, first of two such columns (c3)
[20] = ATCC19615, ATCC19615, read-out: MIC S. pyogenes ATCC19615
[21] = macrolide-resistant, read-out: MIC S. pyogenes macrolide-resistant
[22] = ATCC29212, ATCC29212, read-out: MIC E. faecalis ATCC29212
[23] = Vancomycin-resistant, read-out: MIC E. faecalis Vancomycin-resistant
[24] = ATCC25922, ATCC25922, read-out: MIC E. coli ATCC25922
[25] = read-out: MIC E. coli NDM-1, NDM-1
[26] = ATCC19606, ATCC19606, read-out: MIC A. baumannii ATCC19606
[27] = imipenem-resistant, read-out: MIC A. baumannii imipenem-resistant
[28] = ATCC10031, ATCC10031, read-out: MIC K. pneumoniae ATCC10031
[29] = KPC-2, read-out: MIC K. pneumoniae KPC-2
[30] = ATCC49247, ATCC49247, read-out: MIC H. influenzae ATCC49247
[31] = erythro > 4, azithro 1, read-out: MIC H. influenzae erythro > 4, azithro 1

CCC1OC(=O)C(C)(F)C(=O)C(C)C(OC2OC(COC(=O)c3ccccc3)C(O)C(N(C)C)C2O)C(C)(OC)CC(C)CNC(C)C2N(CCCCn3cc(-c4cccc(N)c4)nn3)C(=O)OC12C (centres unmarked) [FSM-21798]
32 µg/mL: MIC S. pyogenes macrolide-resistant ([3]; macrolide-resistant) | MIC E. faecalis ATCC29212 [4]
8 µg/mL: MIC S. pyogenes ATCC19615 [3]
>32 µg/mL: MIC S. aureus ATCC29213 [1] | MIC S. aureus MRSA: USA100 [1] | MIC S. aureus MRSA: USA300 [1] | MIC S. aureus USA600, GISA [1] | MIC S. aureus erm A genotype [1] | MIC S. pneumoniae ATCC49619 [2] | MIC S. pneumoniae erm B + mef A genotype ([2]; erm B + mef A genotype) | MIC S. pneumoniae erm B + tet(M, O) genotype ([2]; erm B + tet(M, O) genotype) | MIC E. faecalis Vancomycin-resistant ([4]; Vancomycin-resistant) | MIC E. coli ATCC25922 [5] | MIC E. coli NDM-1 [5] | MIC A. baumannii ATCC19606 [6] | MIC A. baumannii imipenem-resistant ([6]; imipenem-resistant) | MIC K. pneumoniae ATCC10031 [7] | MIC K. pneumoniae KPC-2 ([7]; KPC-2) | MIC P. aeruginosa ATCC27853 [8] | MIC H. influenzae ATCC49247 [9] | MIC H. influenzae erythro > 4, azithro 1 ([9]; erythro > 4, azithro 1)

CC[C@H]1OC(=O)[C@H](C)C(=O)[C@H](C)[C@@H](O[C@@H]2OC(CNC(=O)CNC(C)(C)C)CC(N(C)C)C2O)[C@](C)(OC)C[C@@H](C)CN[C@H](C)[C@H]2N(CCCCn3cc(-c4cccc(N)c4)nn3)C(=O)O[C@]12C (some centres unmarked) [FSM-21879]
> 32 µg/mL: MIC [1, 11] | MIC [1, 12] | MIC [1, 13] | MIC [1, 14] | MIC [4, 23] | MIC [6, 26] | MIC [6, 27] | MIC [7, 29] | MIC [8]
1 µg/mL: MIC [2, 16]
< 0.0313 µg/mL: MIC [2, 15] | MIC [2, 17] | MIC [3, 20]
8 µg/mL: MIC [7, 28] | MIC [9, 31]
4 µg/mL: MIC [2, 18]
2 µg/mL: MIC [3, 21]
16 µg/mL: MIC [4, 22] | MIC [9, 30]
32 µg/mL: MIC [1, 10] | MIC [5, 24] | MIC [5, 25]
0.25 µg/mL: MIC [2, 19]

CC[C@H]1OC(=O)[C@H](C)C(=O)[C@H](C)[C@@H](O[C@@H]2OC(CNC(=O)CN)CC(N(C)C)C2O)[C@](C)(OC)C[C@@H](C)CN[C@H](C)[C@H]2N(CCCCn3cc(-c4cccc(N)c4)nn3)C(=O)O[C@]12C (some centres unmarked) [FSM-21878]
16 µg/mL: MIC [4, 22] | MIC [7, 28]
32 µg/mL: MIC [1, 10] | MIC [9, 31]
8 µg/mL: MIC [2, 18]
0.5 µg/mL: MIC [2, 19]
> 32 µg/mL: MIC [1, 11] | MIC [1, 12] | MIC [1, 13] | MIC [1, 14] | MIC [4, 23] | MIC [5, 24] | MIC [5, 25] | MIC [6, 26] | MIC [6, 27] | MIC [7, 29] | MIC [8] | MIC [9, 30]
< 0.0313 µg/mL: MIC [2, 15] | MIC [2, 17] | MIC [3, 20]
4 µg/mL: MIC [2, 16] | MIC [3, 21]

CCC1OC(=O)C(C)C(=O)C(C)C(OC2OC(Cn3cc(-c4cccc(N)n4)nn3)CC(N(C)C)C2O)C(C)(OC)CC(C)CNC(C)C2N(CCCCn3cc(-c4cccc(N)c4)nn3)C(=O)OC12C (centres unmarked) [FSM-22372]
>32 µg/mL: MIC S. aureus ATCC29213 [1] | MIC S. aureus MRSA: USA100 [1] | MIC S. aureus MRSA: USA300 [1] | MIC S. aureus USA600, GISA [1] | MIC S. aureus erm A genotype [1] | MIC S. pneumoniae erm B + mef A genotype ([2]; erm B + mef A genotype) | MIC E. faecalis Vancomycin-resistant ([4]; Vancomycin-resistant) | MIC E. coli ATCC25922 [5] | MIC E. coli CTX-M-14 ([5]; CTX-M-14) | MIC E. coli NDM-1 [5] | MIC E. coli TEM-1 ([5]; TEM-1) | MIC A. baumannii ATCC19606 [6] | MIC A. baumannii IMP-4 ([6]; IMP-4) | MIC A. baumannii chromosomal class C ([6]; chromosomal class C) | MIC A. baumannii imipenem-resistant ([6]; imipenem-resistant) | MIC K. pneumoniae ATCC10031 [7] | MIC K. pneumoniae KPC-2 ([7]; KPC-2) | MIC K. pneumoniae SHV-12 ([7]; SHV-12) | MIC K. pneumoniae TEM-10 ([7]; TEM-10) | MIC P. aeruginosa ATCC27853 [8] | MIC P. aeruginosa HPA101-1477 ([8]; HPA101-1477)
8 µg/mL: MIC S. pyogenes macrolide-resistant ([3]; macrolide-resistant)
<0.03125 µg/mL: MIC S. pneumoniae ATCC49619 [2] | MIC S. pneumoniae erm B + tet(M, O) genotype ([2]; erm B + tet(M, O) genotype) | MIC S. pyogenes ATCC19615 [3]
16 µg/mL: MIC E. faecalis ATCC29212 [4] | MIC H. influenzae ATCC49247 [9] | MIC H. influenzae erythro > 4, azithro 1 ([9]; erythro > 4, azithro 1)
